Article PMC10489817, “2-Alkyl-Substituted-4-Amino-Thieno[2,3-d]Pyrimidines: Anti-Proliferative Properties to In Vitro Breast Cancer Models” (Molecules, 2023)
Like-named read-outs stand apart in the source and are kept apart here.

Key:
[1] = system: MDA-MB-435; set-up: method as in PMID 23538397; details: cited from earlier work
[2] = system: A549, HCT116 and MCF-7 cell lines; set-up: method as in doi:10.1016/j.cclet.2014.05.043; details: cell line not stated; cited from earlier work
[3] = system: MCF-7; assay: MTT anti-proliferative test, MCF-7; assay type: cell-based, human; details: for IC50: Homo sapiens, MCF7, MTT
From the text: (§1) The MCF-10A cell line (normal human mammary epithelial cells) served as a reference control.
(§2) All breast cell lines (MCF-10A, MCF-7, and MDA-MB-231) were purchased from the American Type Culture Collection—ATCC (Manassas, VA, USA). The MCF-7 and MDA-MB-231 were cultivated in Dulbecco’s modified Eagle’s medium (DMEM) and supplemented with 10% fetal bovine serum (FBS), 1% sodium pyruvate, and 1% MEM non-essential amino acids (NEAA) without antibiotics. The non-tumorigenic breast cell line (MCF-10A) was cultivated in DMEM medium (Sigma-Aldrich, St. Louis, MO, USA) and supplemented with 10% FBS, 1% sodium pyruvate, 1% non-essential amino acids (NEAA), 20 ng/mL human epithelia growth factor (hEGF), 10 μg/mL insulin, and 0.5 μg/mL hydrocortisone without antibiotics. All cell lines were maintained in a humidified atmosphere, with 5% CO2 at 37 °C.
(§3) Using the standard MTT-dye reduction assay described by Mosmann, the anti-proliferative activity was tested. The method is based on the metabolism of the tetrazolium salt MTT to insoluble formazan. The formazan absorption was registered using a microplate reader at λ = 540 nm. The measured absorption is an indicator of cell viability and metabolic activity. Anti-proliferative activities were expressed as IC50 values (concentrations required for 50% inhibition of cell growth), calculated using non-linear regression analysis (GraphPad Software, San Diego, CA, USA).

[4] = system: BALB 3T3 cells; assay: in vitro 3T3 NRU test, phototoxicity; assay type: cell-based, mouse; details: for IC50: Mus musculus, light or radiation study
Procedure: (§4) Compounds 2–5 were studied for cytotoxicity/phototoxicity by an in vitro 3T3 NRU-test. The cell line BALB 3T3, clone A31 (mouse embryo fibroblasts), was incubated with the test compounds at a concentration from 15 to 4000 µg/mL for 24 h at 37 °C, 5% CO2, and 95% humidity. The cytotoxicity and phototoxicity were expressed in percentages relative to the negative control determined. […] Based on the dose–response curves, the CC50/PC50 values (50% cytotoxic/phototoxic concentration) were calculated by nonlinear regression analysis (Table 1). The CC50 values can be used to calculate the PIF (photo-irritancy factor) for each test compound according to the following formula: PIF = CC50/PC50.
(§5) BALB/3T3 cells were cultured in 75 cm^2 tissue culture flasks in DMEM, 10% FBS, 2 mM glutamine, and antibiotics (penicillin 100 U/mL and streptomycin-100 µg/mL) at 37 °C, 5% CO2, and 90% relative humidity. Cytotoxicity/phototoxicity was assessed by a validated BALB/3T3 clone A31 neutral red uptake assay (3T3 NRU test). Briefly, cells were plated in a 96-well microtiter plate at a density of 1 × 10^4 cells/100 µL/well and incubated for 24 h. A wide concentration range was applied for the test compounds. For the phototoxicity tests, 96-well plates were irradiated with a dose of 2.4 J/cm^2, and the cells were incubated for an additional 24 h. After treatment with neutral red medium, washing, and treatment with the ethanol/acetic acid solution, the absorption was measured on a TECAN microplate reader (TECAN, Grödig, Austria) at a wavelength of 540 nm. The light source which we used was a light-emitting diode (LED) matrix—an artificial solar light simulator Helios-iO, model LE-9ND55-H—5500K (SERIC Ltd., Tokyo, Japan).
(§6) Cytotoxicity/phototoxicity were expressed as CC50/PC50 values (concentrations required for 50% cytotoxicity/phototoxicity), calculated using non-linear regression analysis (GraphPad Software GraphPad Prism 9.5.1, San Diego, CA, USA). The CC50 values were used to calculate the PIF (photo-irritancy factor) for each test substance, according to the following formula:
PIF = Cytotoxicity (CC50)/Phototoxicity (PC50)

[5] = system: MDA-MB-231; assay: MTT anti-proliferative test, MDA-MB-231; assay type: cell-based, human
From the text: as §1, §2, §3

[6] = in vitro 3T3 NRU test, cytotoxicity; assay type: cell-based, mouse; details: mouse, BALB/3T3 clone A31 cells (mouse embryo fibroblasts)
Procedure: as §4, §5
as §6, with “formula: […]” for “formula:”

[7] = system: MCF-10A; assay: MTT anti-proliferative test, MCF-10A; assay type: cell-based; details: Homo sapiens
From the text: as §1, §2, §3

Question: Which “growth percent (GP)” value [1] does the source give for `Cc1sc2nc(NCc3ccccc3)[nH]c(=O)c2c1C` [2-(benzylamino)-5,6-dimethylthieno[2,3-d]pyrimidin-4(3H)-one] here?
Answer: Its value is −31.02%.

Question: Which IC50 [2] does the source give for `Cc1cc2c(OCc3cc(-c4ccc(Cl)cc4)no3)ncnc2s1` [6-methyl-4-{[3-(4-chlorophenyl)-isoxazol-5-yl-]-methoxy}-thieno[2,3-d]pyrimidine] here?
Answer: Its IC50 is 0.00421 µM.

Question: With `N.N.[Cl][Pt][Cl]` [Cisplatin, reference compound] as the molecule, how does the “selective index in the positive control” value ([3]; tumor cell line not stated, paragraph on MCF-7) read?
Answer: The value was 25.

Question: For `CCOC(=O)c1sc2nc(CCCl)nc(N)c2c1C` [Compound 3, Ethyl 4-Amino-2-(2-Chloroethyl)-5-Methylthieno[2,3-d] Pyrimidine-6-Carboxylate], which IC50 ([4]; BALB 3T3, irradiated 2.4 J/cm^2 (PC50), read-out: IC50 of Mean ± SD, Phototoxicity) is on record?
Answer: The IC50 was 545 ± 40.1 µg/mL.

Question: And the IC50 ([4]; BALB 3T3, irradiated, value in brackets, read-out: IC50, Phototoxicity (converted))?
Answer: Its IC50 is 1900 µM.

Question: And the “PIF (photo-irritancy factor)” value ([4]; PIF = CC50/PC50, <2 not phototoxic)?
Answer: Its value is 1.2.

Question: What about the IC50 ([5]; Homo sapiens, MDA-MB-231, MTT, read-out: IC50 MDA-MB-231 (converted)) of the same molecule?
Answer: The IC50 was 400 µM.

Question: And the IC50 ([5]; Homo sapiens, MDA-MB-231, MTT, read-out: IC50 of Mean ± SD, Anti-Proliferative Activity MDA-MB-231)?
Answer: The IC50 was 131 ± 3 µg/mL.

Question: What about the “SI (selective index) MDA-MB-231” value ([5]; IC50 MCF-10A/IC50 MDA-MB-231) of the same molecule?
Answer: Its value is 0.3.

Question: What about the IC50 ([5]; MTT, read-out: IC50 MDA-MB-231 (converted)) of the same molecule?
Answer: The IC50 was 440 µM.

Question: What about the IC50 ([3]; read-out: IC50 MCF-7 (converted)) of the same molecule?
Answer: The IC50 was 45 µM.

Question: And the IC50 ([3]; read-out: IC50 MCF-7 (text))?
Answer: The IC50 was 13.4 µg/mL.

Question: What about the IC50 ([3]; read-out: IC50 of Mean ± SD, Anti-Proliferative Activity MCF-7) of the same molecule?
Answer: Its IC50 is 13.4 ± 0.8 µg/mL.

Question: What about the “SI (selective index) MCF-7” value ([3]; IC50 MCF-10A/IC50 MCF-7) of the same molecule?
Answer: The value was 3.4.

Question: And the IC50 at 24 h ([6]; BALB 3T3, 24 h, NRU, no irradiation (CC50), read-out: IC50 of Mean ± SD, Cytotoxicity)?
Answer: The IC50 at 24 h was 674 ± 31.8 µg/mL.

Question: What about the IC50 at 24 h ([6]; BALB 3T3, value in brackets, read-out: IC50, Cytotoxicity (converted)) of the same molecule?
Answer: Its IC50 at 24 h is 2200 µM.

Question: What about the melting point of the same molecule?
Answer: Its melting point is 163 to 165 °C.

Question: And the IC50 ([7]; read-out: IC50 MCF-10A (converted))?
Answer: Its IC50 is 100 µM.

Question: And the IC50 ([7]; read-out: IC50 of Mean ± SD, Anti-Proliferative Activity MCF-10A)?
Answer: The IC50 was 45.3 ± 3.5 µg/mL.
